Square brackets hold non-standard residues; d marks the D form. Peptide text beside a SMILES is read from it.
Tests used:
[1] = Stability on incubation with mouse plasma for 8 h (RP-HPLC peak height); format: in vitro ADME; conditions: mouse, plasma
Procedure: The samples were then separated on RP-HPLC and the peak height compared to the value at time=0 hours.

[2] = human, in vivo; cited from earlier work

CSCC[C@H](NC(=O)[C@H](Cc1ccc(O)cc1)NC(=O)[C@H](CCCCN)NC(=O)[C@H](CO)NC(=O)[C@H](Cc1ccc(O)cc1)NC(=O)[C@H](CC(=O)O)NC(=O)[C@H](CO)NC(=O)[C@@H](NC(=O)[C@H](Cc1ccccc1)NC(=O)[C@@H](NC(=O)CNC(=O)[C@H](CCC(=O)O)NC(=O)[C@@H](C)NC(=O)[C@@H](N)Cc1c[nH]cn1)[C@@H](C)O)[C@@H](C)O)C(=O)N[C@@H](CC(=O)O)C(=O)N[C@@H](CC(N)=O)C(=O)N[C@@H](CCCNC(=N)N)C(=O)N[C@@H](CCCNC(=N)N)C(=O)N[C@@H](C)C(=O)N[C@@H](CCCCN)C(=O)N[C@@H](CC(=O)O)C(=O)N[C@@H](Cc1ccccc1)C(=O)N[C@H](C(=O)N[C@@H](CCC(N)=O)C(=O)N[C@@H](Cc1c[nH]c2ccccc12)C(=O)N[C@@H](CC(C)C)C(=O)N[C@@H](CCSC)C(=O)N[C@@H](CC(N)=O)C(=O)N[C@H](C(=O)N1CCC[C@H]1C(=O)N[C@@H](CO)C(=O)N[C@@H](CO)C(=O)NCC(=O)N[C@@H](C)C(=O)N1CCC[C@H]1C(=O)N1CCC[C@H]1C(=O)N1CCC[C@H]1C(=O)N[C@@H](CO)C(N)=O)[C@@H](C)O)C(C)C [(D-A^2) dogfish glucagon exendin, (D-A^2) dogfish glucagon exendin end] (H-H[dA]EGTFTSDYSKYMDNRRAKDFVQWLMNTPSSGAPPPS-NH2; N-terminus assumed)
metabolised at 8 h [1]: 18.3%

CSCC[C@H](NC(=O)[C@H](Cc1ccc(O)cc1)NC(=O)[C@H](CCCCN)NC(=O)[C@H](CO)NC(=O)[C@H](Cc1ccc(O)cc1)NC(=O)[C@H](CC(=O)O)NC(=O)[C@H](CO)NC(=O)[C@@H](NC(=O)[C@H](Cc1ccccc1)NC(=O)[C@@H](NC(=O)CNC(=O)[C@H](CCC(=O)O)NC(=O)[C@@H](C)NC(=O)[C@@H](N)Cc1c[nH]cn1)[C@@H](C)O)[C@@H](C)O)C(=O)N[C@@H](CC(=O)O)C(=O)N[C@@H](CC(N)=O)C(=O)N[C@@H](CCCNC(=N)N)C(=O)N[C@@H](CCCNC(=N)N)C(=O)N[C@@H](C)C(=O)N[C@@H](CCCCN)C(=O)N[C@@H](CC(=O)O)C(=O)N[C@@H](Cc1ccccc1)C(=O)N[C@H](C(=O)N[C@@H](CCC(N)=O)C(=O)N[C@@H](Cc1c[nH]c2ccccc12)C(=O)N[C@@H](CC(C)C)C(=O)N[C@@H](CCSC)C(=O)N[C@@H](CC(N)=O)C(=O)N[C@H](C(=O)O)[C@@H](C)O)C(C)C [(D-Ala^2) dogfish glucagon, (D-A^2) dogfish glucagon] (H-H[dA]EGTFTSDYSKYMDNRRAKDFVQWLMNT-OH; N-terminus and C-terminus assumed)
metabolised at 8 h [1]: 40.1%

CSCC[C@H](NC(=O)[C@H](Cc1ccc(O)cc1)NC(=O)[C@H](CCCCN)NC(=O)[C@H](CO)NC(=O)[C@H](Cc1ccc(O)cc1)NC(=O)[C@H](CC(=O)O)NC(=O)[C@H](CO)NC(=O)[C@@H](NC(=O)[C@H](Cc1ccccc1)NC(=O)[C@@H](NC(=O)CNC(=O)[C@H](CCC(=O)O)NC(=O)[C@H](CO)NC(=O)[C@@H](N)Cc1c[nH]cn1)[C@@H](C)O)[C@@H](C)O)C(=O)N[C@@H](CC(=O)O)C(=O)N[C@@H](CC(N)=O)C(=O)N[C@@H](CCCNC(=N)N)C(=O)N[C@@H](CCCNC(=N)N)C(=O)N[C@@H](C)C(=O)N[C@@H](CCCCN)C(=O)N[C@@H](CC(=O)O)C(=O)N[C@@H](Cc1ccccc1)C(=O)N[C@H](C(=O)N[C@@H](CCC(N)=O)C(=O)N[C@@H](Cc1c[nH]c2ccccc12)C(=O)N[C@@H](CC(C)C)C(=O)N[C@@H](CCSC)C(=O)N[C@@H](CC(N)=O)C(=O)N[C@H](C(=O)O)[C@@H](C)O)C(C)C [dogfish glucagon, Dogfish glucagon (1-29)] (H-HSEGTFTSDYSKYMDNRRAKDFVQWLMNT-OH; N-terminus and C-terminus assumed)
metabolised at 8 h [1]: 38.8%

Glucagon-like peptide-1 [GLP-1]
half-life [2]: less than two

From US20150197550A1 (UNIVERSITY OF ULSTER, priority 2012, published 2015)
